# Experimental data reported in patent US7279293B2 (priority 2002, dated 2007).
# “Also recorded” adds a separate entry of the source.
# Tests used:
# Format in all cases: cell-based
# [1] = tested on: wild type mouse H3 receptor and mouse H3 receptor mutants MT1, MT2, MT3, MT5, MT6; conditions: 10 μM forskolin
# Method: (§1) Wild type mouse H3 receptor cDNA and the five mouse H3 receptor mutant cDNAs were each transfected into cell line HEK293, and screened with G418 to obtain their respective stable clones. Northern analysis was used to check expression levels, and stable clones with roughly equal expression levels were used in the experiment.
# (§2) Since H3 receptors are Gi-binding-type G protein-coupled receptors, cAMP levels were measured using ELISA. More specifically, 10^5 cells per well were cultured in a 24-well plate the day before testing. On the day of the test, cells were cultured for 15 minutes in the absence of serum, and then treated for 15 minutes with 0.5 mM IBMX. Forskolin (10 μM), histamine (10^−11 M to 10^−6 M) and thioperamide (10^−10 M to 10^−5 M) were respectively added, and the cells were treated for 15 minutes. The cAMP Enzyme Immunoassay (EIA) System (Amersham) was used to measure cAMP. The cells were lysed with 150 μl of lysing reagent 1B, provided with the kit. 5 μl of the cell lysate and rabbit anti-cAMP antibody were reacted by being allowed to stand undisturbed at 4° C. for two hours on an antibody-immobilized plate. Moreover, enzyme-labeled antibody was added and reacted by being allowed to stand undisturbed at 4° C. for one hour. The plate was washed with buffer, and enzyme substrate solution was then added and reacted by being allowed to stand undisturbed at room temperature for about 30 minutes. The reaction was stopped with 1 N sulfuric acid, and optical absorbance was then measured. A standard curve was produced from the optical absorbances of standard cAMP solutions, and cAMP levels were determined.
# [2] = biological target: T1, MT6 clone (constitutively active mouse H3 receptor mutant) (Mus musculus, UniProt P58406, A357K); assay: cAMP levels by ELISA (cAMP EIA) in the HEK293 MT6 clone, with 10 μM forskolin; conditions: thioperamide with 10 μM forskolin; MT6 clone versus wild type H3
# T1 construct: expressed in transfected cells
# Method: as §1
# as §2, with “Moreover, enzyme-labeled antibody was added and reacted by being allowed to stand undisturbed at 4° C. for one hour. The plate was washed with buffer, and enzyme substrate solution was then added and reacted by being allowed to stand undisturbed at room temperature for about 30 minutes.” left out
# [3] = biological target: T2, wild type mouse H3 receptor and mouse H3 receptor mutants MT1, MT2, MT3, MT5, MT6 (Mus musculus, UniProt P58406, A357K)
# T2 construct: expressed in transfected cells
# Method: as §1, §2
# T2 sequence (P58406 whole entry A357K): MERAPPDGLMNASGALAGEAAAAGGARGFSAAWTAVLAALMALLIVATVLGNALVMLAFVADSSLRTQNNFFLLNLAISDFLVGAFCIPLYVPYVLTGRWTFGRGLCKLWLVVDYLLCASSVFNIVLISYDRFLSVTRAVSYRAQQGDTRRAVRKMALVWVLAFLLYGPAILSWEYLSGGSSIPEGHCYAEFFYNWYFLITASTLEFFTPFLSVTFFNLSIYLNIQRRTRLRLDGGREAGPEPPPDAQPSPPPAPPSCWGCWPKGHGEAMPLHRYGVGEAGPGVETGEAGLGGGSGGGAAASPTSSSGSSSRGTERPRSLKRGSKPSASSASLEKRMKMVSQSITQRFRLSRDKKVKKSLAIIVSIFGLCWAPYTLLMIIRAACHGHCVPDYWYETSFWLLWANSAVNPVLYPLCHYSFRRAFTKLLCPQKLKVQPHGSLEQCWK
# T1 sequence (P58406 whole entry A357K): as above
compound,measurement,setting,value
pertussis toxin [PTX],effect of PTX on the cAMP increases caused by thioperamide,"[1]; wild type H3 and MT6 clones, PTX 100 ng/ml for 18 hours",inhibited the increases in cAMP caused by thioperamide
S=C(NC1CCCCC1)N1CCC(c2cnc[nH]2)CC1 [thioperamide],cAMP increase in MT6 clone compared to the wild type,[2],about five-fold
same,change in cAMP levels caused by thioperamide,[3],increase with increased doses of thioperamide; also recorded: increase cAMP levels dose-dependently
NCCc1c[nH]cn1 [histamine],change in cAMP levels caused by histamine,"[1]; all clones, histamine 10^-11 M to 10^-6 M, 15 minutes, FIG. 4",decrease in a histamine dose-dependent manner; also recorded: decreased histamine dose-dependently
